Assay results taken from patent US20240336642A1 (The General Hospital Corporation, priority 2021, published 2024).

How the values were obtained:
[1] = Aqueous solubility of exemplified compounds (Example 3); type: physicochemical; conditions: aqueous solubility
h12/15-LOX = h12/15-LOX (Homo sapiens (Human), UniProt P16050); assay: 12/15-LOX enzyme inhibition IC50 assay (Examples 1 and 2); type: biochemical; conditions: for Emax / Max % inhibition: h12/15-LOX; for Emax: read-out: Max % inhibition
h12/15-LOX, sequence (P16050 whole entry): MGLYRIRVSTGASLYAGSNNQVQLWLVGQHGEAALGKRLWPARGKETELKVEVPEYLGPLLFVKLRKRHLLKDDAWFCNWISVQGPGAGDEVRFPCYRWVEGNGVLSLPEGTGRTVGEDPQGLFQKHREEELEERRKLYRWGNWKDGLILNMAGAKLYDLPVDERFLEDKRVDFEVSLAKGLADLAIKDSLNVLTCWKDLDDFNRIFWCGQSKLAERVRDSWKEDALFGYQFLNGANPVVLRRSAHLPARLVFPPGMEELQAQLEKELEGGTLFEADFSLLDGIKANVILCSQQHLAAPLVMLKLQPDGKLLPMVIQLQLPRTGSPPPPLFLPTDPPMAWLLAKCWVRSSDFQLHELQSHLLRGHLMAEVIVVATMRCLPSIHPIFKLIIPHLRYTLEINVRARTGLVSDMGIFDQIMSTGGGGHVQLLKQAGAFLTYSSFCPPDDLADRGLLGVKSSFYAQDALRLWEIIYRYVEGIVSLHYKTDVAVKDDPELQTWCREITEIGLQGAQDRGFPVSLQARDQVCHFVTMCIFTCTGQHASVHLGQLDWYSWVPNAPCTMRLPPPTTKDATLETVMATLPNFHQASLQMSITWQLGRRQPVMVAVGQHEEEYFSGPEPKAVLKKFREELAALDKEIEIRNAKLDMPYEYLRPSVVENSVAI
Protocol: Enzyme was then added to the cuvettes. […] The % inhibition for each test compound concentration were calculated as follows: […]

[2] = Metabolic stability of exemplified compounds (Example 4); type: in vitro ADME
[3] = Solubility in formulation vehicles (Solutol HS-15/PEG400, Captisol); type: physicochemical; conditions: 10% Solutol/90% PEG400
Protocol: Combinations of Solutol HS-15 (also known as Kolliphor HS-15) with PEG400 provided a good vehicle to solubilize the tested compounds. Specifically, 10% Solutol/90% PEG400 was used to prepare 20 mg/ml solutions of compound 1, compound 44, and compound 32. 10% Solutol/15% H2O/[…] led to 10 mg/ml solutions of the tested compounds.
20 mg/ml were obtained in 20% Captisol, allowing for intravenous delivery in the mouse stroke model.

[4] = tested on: experimental stroke model in mice (MCAO); assay: Mouse stroke model, filament middle cerebral artery occlusion (MCAO), infarct size; type: in vivo; conditions: 40 mg/kg intraperitoneally 2 h post reperfusion, 60 minutes MCAO, sacrifice at 24 h, TTC staining
Protocol: Studies were carried out in experimental stroke model in mice, using the filament model of middle cerebral artery occlusion (MCAO). For intraperitoneal delivery, compounds were dissolved in DMSO. A number of exemplified compounds were able to reduce infarct size when given at a dosage of 40 mg/kg.
40 mg/kg cmpd. 1 were given i.p. at time of reperfusion. Infarct size was measured at 24 hours after 60 minutes MCAO.
MCAO (Experimental Middle Cerebral Artery Ischemia and Functional Recovery) experiment: 40 mg/kg of compound delivered intraperitoneally 2 h post reperfusion, 60 minutes MCAO, sacrifice at 24 h, infarct size determined by TTC staining.

Compound	Sol [1]	IC50 (h12/15-LOX) [nM]	Emax (h12/15-LOX) [%]	Extr (EH) ([2]; Human liver microsomes)	microsomal CLint ([2]; Human liver microsomes) [µL/min/mg]	Extr (EH) ([2]; Mouse liver microsomes)	microsomal CLint ([2]; Mouse liver microsomes) [µL/min/mg]	Extr (EH) ([2]; Rat liver microsomes)	microsomal CLint ([2]; Rat liver microsomes) [µL/min/mg]	solution concentration achieved [3] [mg/mL]	infarct size reduction ([4]; listed as Cmpd. 32) [%]	infarct size reduction ([4]; listed as compound 32) [%]	infarct size reduction [4] [%]	Max % inhibition (h12/15-LOX) [%]	CLint ([2]; Human liver microsomes)	CLint ([2]; Mouse liver microsomes)	CLint ([2]; Rat liver microsomes)
N#Cc1nc(-c2cc(Cl)cc(Cl)c2Cl)oc1NCCCO [Compound 16, 5-((3-Hydroxypropyl)amino)-2-(2,3,5-trichlorophenyl)oxazole-4-carbonitrile]	+++ (“+++” 20-50 μM)	4300	100	* (“*” <50%)	< 20	** (“**” 50-100%)	100 to 200	* (“*” <50%)	20 to 100	–	–	–	–	–	–	–	–
N#Cc1nc(-c2cc(Cl)cc(Cl)c2Cl)oc1NCCCCO [Compound 17, 5-((4-Hydroxybutyl)amino)-2-(2,3,5-trichlorophenyl)oxazole-4-carbonitrile]	++ (“++” 10-20 μM)	1900	100	* (“*” <50%)	< 20	* (“*” <50%)	< 20	* (“*” <50%)	< 20	–	–	–	–	–	–	–	–
N#Cc1nc(-c2cc(Cl)cc(Cl)c2Cl)oc1NCCCCCO [Compound 22, 5-((5-Hydroxypentyl)amino)-2-(2,3,5-trichlorophenyl)oxazole-4-carbonitrile]	+ (“+” < 10 μM)	510	82	** (“**” 50-100%)	20 to 100	* (“*” <50%)	< 20	* (“*” <50%)	20 to 100	–	–	–	–	–	–	–	–
N#Cc1nc(-c2cc(Cl)cc(Cl)c2Cl)oc1NCCOCCO [Compound 28, 5-((2-(2-Hydroxyethoxy)ethyl)amino)-2-(2,3,5-trichlorophenyl)oxazole-4-carbonitrile]	+++ (“+++” 20-50 μM)	1500	87	** (“**” 50-100%)	20 to 100	* (“*” <50%)	20 to 100	* (“*” <50%)	< 20	–	–	–	–	–	–	–	–
COCCOCCNc1oc(-c2cc(Cl)cc(Cl)c2Cl)nc1C#N [Compound 32, 5-((2-(2-Methoxyethoxy)ethyl)amino)-2-(2,3,5-trichlorophenyl) oxazole-4-carbonitrile]	++ (“++” 10-20 μM)	610	96	* (“*” <50%)	< 20	* (“*” <50%)	< 20	* (“*” <50%)	< 20	20	31.8	31.8	–	–	–	–	–
COCCNc1oc(-c2cc(Cl)cc(Cl)c2Cl)nc1C#N [Compound 39, 5-((2-Methoxyethyl)amino)-2-(2,3,5-trichlorophenyl)oxazole-4-carbonitrile]	+ (“+” < 10 μM)	370	100	** (“**” 50-100%)	20 to 100	** (“**” 50-100%)	100 to 200	** (“**” 50-100%)	20 to 100	–	–	–	–	–	–	–	–
N#Cc1nc(-c2cc(Cl)cc(Cl)c2Cl)oc1NCC#CCOCc1ccccc1 [Compound 43, 5-((4-(Benzyloxy)but-2-yn-1-yl)amino)-2-(2,3,5-trichlorophenyl)oxazole-4-carbonitrile]	+ (“+” < 10 μM)	230	93	** (“**” 50-100%)	100 to 200	** (“**” 50-100%)	20 to 100	** (“**” 50-100%)	20 to 100	–	–	–	–	–	–	–	–
[2H]C([2H])([2H])Nc1oc(-c2cc(Cl)cc(Cl)c2Cl)nc1C#N [Compound 44, 5-((methyl-d3)amino)-2-(2,3,5-trichlorophenyl) oxazole-4-carbonitrile]	–	90	91	–	–	–	–	–	–	20	–	–	29.6	–	–	–	–
COC/C=C/CNc1oc(-c2cc(Cl)cc(Cl)c2Cl)nc1C#N [Compound 45, (E)-5-((4-Methoxybut-2-en-1-yl)amino)-2-(2,3,5-trichlorophenyl)oxazole-4-carbonitrile]	+ (“+” < 10 μM)	190	98	** (“**” 50-100%)	20 to 100	** (“**” 50-100%)	100 to 200	** (“**” 50-100%)	20 to 100	–	–	–	–	–	–	–	–
COCC/C=C/CNc1oc(-c2cc(Cl)cc(Cl)c2Cl)nc1C#N [Compound 46, (E)-5-((5-Methoxypent-2-en-1-yl)amino)-2-(2,3,5-trichlorophenyl)oxazole-4-carbonitrile]	+ (“+” < 10 μM)	210	95	** (“**” 50-100%)	20 to 100	** (“**” 50-100%)	100 to 200	** (“**” 50-100%)	20 to 100	–	–	–	–	–	–	–	–
N#Cc1nc(-c2cc(Cl)cc(Cl)c2Cl)oc1NC/C=C/COCc1ccccc1 [Compound 47, (E)-5-((4-(Benzyloxy)but-2-en-1-yl)amino)-2-(2,3,5-trichlorophenyl)oxazole-4-carbonitrile]	+ (“+” < 10 μM)	230	98	** (“**” 50-100%)	100 to 200	** (“**” 50-100%)	100 to 200	** (“**” 50-100%)	100 to 200	–	–	–	–	–	–	–	–
COCCOCCCCNc1oc(-c2cc(Cl)cc(Cl)c2Cl)nc1C#N [Compound 48, 5-((4-(2-Methoxyethoxy)butyl)amino)-2-(2,3,5-trichlorophenyl)oxazole-4-carbonitrile]	+ (“+” < 10 μM)	620	–	** (“**” 50-100%)	–	** (“**” 50-100%)	–	** (“**” 50-100%)	–	–	–	–	–	100	++ (“++” 20-100 μL/min/mg)	+++ (“+++” 100-200 μL/min/mg)	++ (“++” 20-100 μL/min/mg)
CC(C)OCCOCCNc1oc(-c2cc(Cl)cc(Cl)c2Cl)nc1C#N [Compound 49, 5-((2-(2-Isopropoxyethoxy)ethyl)amino)-2-(2,3,5-trichlorophenyl)oxazole-4-carbonitrile]	+ (“+” < 10 μM)	660	95	* (“*” <50%)	< 20	** (“**” 50-100%)	20 to 100	** (“**” 50-100%)	20 to 100	–	–	–	–	–	–	–	–
COCCOCCOCCNc1oc(-c2cc(Cl)cc(Cl)c2Cl)nc1C#N [Compound 50, 5-((2-(2-(2-Methoxyethoxy)ethoxy)ethyl)amino)-2-(2,3,5-trichlorophenyl)oxazole-4-carbonitrile]	+++ (“+++” 20-50 μM)	890	–	** (“**” 50-100%)	–	** (“**” 50-100%)	–	** (“**” 50-100%)	–	–	–	–	–	99	++ (“++” 20-100 μL/min/mg)	++ (“++” 20-100 μL/min/mg)	++ (“++” 20-100 μL/min/mg)
COc1cnccc1OCCOCCNc1oc(-c2cc(Cl)cc(Cl)c2Cl)nc1C#N [Compound 99, 5-((2-(2-((3-Methoxypyridin-4-yl)oxy)ethoxy)ethyl)amino)-2-(2,3,5-trichlorophenyl)oxazole-4-carbonitrile]	–	1700	66	–	–	–	–	–	–	–	–	–	–	–	–	–	–
N#Cc1nc(-c2cc(Cl)cc(Cl)c2Cl)oc1NCCOCCOCCOc1ccncc1 [Compound 100, 5-((2-(2-(2-(Pyridin-4-yloxy)ethoxy)ethoxy)ethyl)amino)-2-(2,3,5-trichlorophenyl)oxazole-4-carbonitrile]	–	> 20000	–	–	–	–	–	–	–	–	–	–	–	–	–	–	–
COc1cc(OCCOCCNc2oc(-c3cc(Cl)cc(Cl)c3Cl)nc2C#N)ccn1 [Compound 101, 5-((2-(2-((2-Methoxypyridin-4-yl)oxy)ethoxy)ethyl)amino)-2-(2,3,5-trichlorophenyl)oxazole-4-carbonitrile]	–	72	62	–	–	–	–	–	–	–	–	–	–	–	–	–	–
N#Cc1nc(-c2cc(Cl)cc(Cl)c2Cl)oc1NCCOCCOc1ccnc(F)c1 [Compound 102, 5-((2-(2-((2-Fluoropyridin-4-yl)oxy)ethoxy)ethyl)amino)-2-(2,3,5-trichlorophenyl)oxazole-4-carbonitrile]	–	110	86	–	–	–	–	–	–	–	–	–	–	–	–	–	–
N#Cc1nc(-c2cc(Cl)cc(Cl)c2Cl)oc1NCCOCCOc1ccnnc1 [Compound 103, 5-((2-(2-(Pyridazin-4-yloxy)ethoxy)ethyl)amino)-2-(2,3,5-trichlorophenyl)oxazole-4-carbonitrile]	–	4600	73	–	–	–	–	–	–	–	–	–	–	–	–	–	–
